Test results as given in PMC3432467 (2012).

Molecular target: flavodoxin II (apoflavodoxin) (Azotobacter vinelandii, UniProt P00324, C70A)
Experiment: FMN fluorescence increase on dilution of holoprotein
Format: binding

Sequence of flavodoxin II (apoflavodoxin) (P00324 2-180 C70A): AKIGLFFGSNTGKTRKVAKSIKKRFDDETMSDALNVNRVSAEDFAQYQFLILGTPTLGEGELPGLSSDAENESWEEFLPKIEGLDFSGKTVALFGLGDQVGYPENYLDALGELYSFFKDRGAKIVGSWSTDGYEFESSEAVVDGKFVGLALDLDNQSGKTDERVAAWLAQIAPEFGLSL

## Cc1cc2nc3c(=O)[nH]c(=O)nc-3n(C[C@H](O)[C@H](O)[C@H](O)COP(=O)(O)O)c2cc1C [flavin mononucleotide]
  Kd: 3.82 pM
